Measured values: PubChem BioAssay (NCI)
“And” between values parts separate entries of the source, which are not always exact repeats. Identical values can stand only once.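 In this assay, cells in 96-well plates receive the compound at five concentrations for 48 hours. Endpoints are linearly interpolated between the surrounding concentrations. Here, GI50 denotes the concentration required for 50% inhibition of growth. At the TGI there is no net growth.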

System: MDA-MB-468 breast
Experiment: growth of human tumour cells (NCI), 48 h

Q: Which results are given for `Nc1nc(Cl)nc2c1ncn2C1O[C@H](CO)[C@@H](O)[C@@H]1F` (some centres not stated)?
A: GI50: 387 nM; TGI: 21800 nM

Q: Which results are given for `Cn1c2ccccc2c2c3c(c4c5ccccc5n(CCCCCC#N)c4c21)C(=O)N(O)C3=O`?
A: GI50: 683 nM; TGI: 6120 nM

Q: `Cc1ccc2c(n1)C(=O)C(Cl)=C(Nc1ccc(C(C)C)cc1)C2=O` was tested. Which GI50 did it give?
A: Its GI50 is 512 nM.

Q: And the TGI?
A: The TGI was 1850 nM.

Q: How did the GI50 turn out when `Cc1nc2cc(O)c(O)cc2cc1Oc1ccc(NC(=O)Nc2ccc(Cl)c(Cl)c2)cc1` was run?
A: The GI50 was 6990 nM.

Q: And the TGI?
A: The TGI was 17400 nM.

Q: For `Cc1ccc(/C=C(\C#N)n2nnc3cc(F)c(F)cc32)cc1`, which GI50 is on record?
A: Its GI50 is 10300 nM.

Q: What about the TGI of the same compound?
A: Its TGI is 44400 nM.

Q: Which results are given for `O=C1NC(=NCc2ccccn2)S/C1=C\c1ccc2ncccc2c1`?
A: GI50: 5970 nM; TGI: > 25000 nM

Q: Which results are given for `CS(=O)(=O)c1nccc(-c2c(-c3cccc(OCc4ccc(Cl)c(C(F)(F)F)c4)c3)nc3sccn23)n1`?
A: GI50: 859 nM; TGI: 1660 nM

Q: What does the source list for `CCN1C(=O)N(c2c(F)c(OC)cc(OC)c2F)Cc2cnc3[nH]c(CN4CCOCC4)cc3c21`?
A: GI50: 2290 nM; TGI: 55900 nM

Q: For `C=C1C(=O)O[C@H]2[C@H]1CC/C(COC(=O)CCC(=O)OC/C1=C/CC[C@@]3(C)O[C@H]3[C@H]3OC(=O)C(=C)[C@@H]3CC1)=C\CC[C@@]1(C)O[C@@H]21`, which GI50 is on record?
A: Its GI50 is 1560 nM.

Q: And the TGI?
A: Its TGI is 4830 nM.

Q: Which GI50 does the source give for `COc1ccc(/C=N/NC2=NC3C(S2)N(C)C(=O)N3C)cc1` (configuration not stated) here?
A: Its GI50 is 1950 nM.

Q: And the TGI?
A: The TGI was 5350 nM.

Q: Which GI50 does the source give for `Cn1c(=O)c(F)c(Nc2ccc(I)cc2F)c2c(=O)n(C[C@@H](O)CO)cnc21` here?
A: Its GI50 is 1800 nM and 590 nM.

Q: And the TGI?
A: Its TGI is 8660 nM and > 2090 nM.

Q: Which GI50 does the source give for `COC(=O)c1c(-c2ccccc2)csc1NC(=O)c1c(-c2ccccc2)noc1C` here?
A: Its GI50 is 3200 nM.

Q: And the TGI?
A: Its TGI is greater than 100000 nM.

Q: Which GI50 does the source give for `COc1cccc2c1C(=O)c1c(O)c3c(c(O)c1C2=O)C[C@@](O)(C(C)=O)C[C@@H]3OC1CC(N)C(O)C(C)O1` (some centres not stated) here?
A: The GI50 was 62.3 nM.

Q: What about the TGI of the same compound?
A: The TGI was 313 nM.

Q: What does the source list for `Fc1ccc(Nc2nc(Nc3ccc(-c4nc5ccccc5[nH]4)cc3)nc(N3CCCC3)n2)cc1`?
A: GI50: 2750 nM; TGI: 6740 nM

Q: Which results are given for `CN1CCC(n2cc(Nc3ncc4c(=O)n(-c5c(Cl)cccc5Cl)cc(Br)c4n3)cn2)CC1`?
A: GI50: 937 nM; TGI: 7270 nM

Q: With `CCCCCCCCSC1=CC(=O)C(OC)=C(OC)C1=O` as the compound, how does the GI50 read?
A: Its GI50 is 1430 nM.

Q: And the TGI?
A: Its TGI is 2970 nM.

Q: `O=C1NC(=NCCc2ccccc2Cl)S/C1=C\c1ccc2ncccc2c1` was tested. Which GI50 did it give?
A: Its GI50 is 2170 nM.

Q: And the TGI?
A: Its TGI is greater than 18300 nM.

Q: For `COc1cc(-c2ccc(-c3ccc(C(=N)N)s3)s2)cc(OC)c1OC`, which GI50 is on record?
A: Its GI50 is 1820 nM.

Q: What about the TGI of the same compound?
A: The TGI was 3700 nM.

Q: How did the GI50 turn out when `C[n+]1c2ccccc2c(NC2CCNCC2)c2[nH]c3ccccc3c21` was run?
A: The GI50 was 200 nM.

Q: And the TGI?
A: The TGI was 1260 nM.

Q: For `Cn1c(=O)c(Cc2ccc(F)cc2F)cc2cnc(NC3CCOCC3)nc21`, which GI50 is on record?
A: Its GI50 is 19600 nM.

Q: What about the TGI of the same compound?
A: Its TGI is greater than 25000 nM.

Q: How did the GI50 turn out when `COc1ccc(C(=O)Nc2cccc(C3CC(=O)c4c(cc(OC)c(OC)c4OC)O3)c2)cc1` (configuration not stated) was run?
A: Its GI50 is 940 nM.

Q: And the TGI?
A: The TGI was greater than 100000 nM.

Q: Which GI50 does the source give for `Nc1nc(N)c2c(n1)NC(c1ccccc1)CC(c1ccc(Nc3nc(NCCO)nc(Nc4ccc(Cl)cc4)n3)cc1)=N2` (configuration not stated) here?
A: Its GI50 is 1510 nM.

Q: What about the TGI of the same compound?
A: The TGI was 2990 nM.

Q: For `COc1ccc(C2CC(c3cc(OC)c(OC)c(OC)c3)=NN2)cc1` (configuration not stated), which GI50 is on record?
A: The GI50 was 4350 nM.

Q: And the TGI?
A: Its TGI is 64500 nM.

Q: Which GI50 does the source give for `COc1ccc(/C=C(/C(=O)N2CCNCC2)c2cc(OC)c(OC)c(OC)c2)cc1O` here?
A: Its GI50 is 2270 nM.

Q: What about the TGI of the same compound?
A: The TGI was 9710 nM.

Q: What does the source list for `Oc1ccc2ccccc2c1/C=N\Nc1ccccn1`?
A: GI50: 1590 nM; TGI: 4870 nM

Q: What does the source list for `CN(C)CCn1cc(-c2ccc3c(Nc4ccc(CC(=O)Nc5cccc(F)c5)cc4)ncnc3c2)cn1`?
A: GI50: 1260 nM; TGI: 2850 nM

Q: `CCCCOC(=O)N[C@H]1CCc2cc(OC)c(OC)c(OC)c2-c2ccc(SC)c(=O)cc21` was tested. Which GI50 did it give?
A: The GI50 was less than 10 nM.

Q: What about the TGI of the same compound?
A: The TGI was 19400 nM.

Q: Which results are given for `NC(=O)NC(=O)CI`?
A: GI50: 2480 nM; TGI: 7730 nM

Q: `C=C1C(=O)O[C@H]2[C@H]1CC/C(Cn1cc(CCC)nn1)=C\CC[C@@]1(C)O[C@@H]21` was tested. Which GI50 did it give?
A: Its GI50 is 3650 nM.

Q: And the TGI?
A: The TGI was 14900 nM.

Q: Which results are given for `CC(C)(C)CC(C)(C)Cc1ccc(OCCOCC[N+](C)(C)Cc2ccccc2)cc1`?
A: GI50: 235 nM; TGI: 1200 nM

Q: What does the source list for `Cc1ccccc1NC(=O)NC(CC(N)=O)c1ccc2c(c1)nc(-c1cccc(Oc3ccc(C(C)(C)C)cc3)c1)n2CCCN1CCCCC1C` (configuration not stated)?
A: GI50: 1780 nM; TGI: 3280 nM

Q: `CCOc1ccc2c(c1)/C(=C\C=C\C1CC(C)C3CC(OCC)CCC3N1CC)CC(C)N2CC` (configuration not stated) was tested. Which GI50 did it give?
A: The GI50 was 280 nM.

Q: And the TGI?
A: The TGI was 1110 nM.

Q: `CNCCNc1nc2ccccc2c2c(=O)c3cccc(OC)c3sc12` was tested. Which GI50 did it give?
A: The GI50 was 1450 nM.

Q: What about the TGI of the same compound?
A: The TGI was 3060 nM.

Q: `COc1ccc(-n2c(N)c(C(=O)NCCN3CCOCC3)c3nc4ccccc4nc32)cc1OC` was tested. Which GI50 did it give?
A: Its GI50 is 17900 nM.

Q: What about the TGI of the same compound?
A: Its TGI is greater than 100000 nM.

Q: What does the source list for `O=C(CCN1CCCC1)Nc1ccc2c(NCCCCc3ccccc3)c3ccccc3nc2c1`?
A: GI50: 811 nM; TGI: 2120 nM

Q: For `COc1ccccc1Nc1nc(-c2cc3cccc(C(F)(F)F)c3oc2=O)cs1`, which GI50 is on record?
A: The GI50 was 97 nM.

Q: And the TGI?
A: Its TGI is 710 nM.

Q: Which GI50 does the source give for `COC(=O)c1ccc2c(c1)nc(-c1ccc(Cl)cc1)n2-c1cc(C(C)(C)C)[nH]n1` here?
A: The GI50 was 2400 nM.

Q: And the TGI?
A: Its TGI is 7980 nM.

Q: For `Cc1ccc(/C=C2\CCOC2=O)cc1`, which GI50 is on record?
A: Its GI50 is greater than 100000 nM.

Q: And the TGI?
A: The TGI was greater than 100000 nM.

Q: With `CSC(=S)N/N=C(\C)c1ccccn1` as the compound, how does the GI50 read?
A: Its GI50 is 68.5 nM.

Q: What about the TGI of the same compound?
A: The TGI was 1210 nM.

Q: With `O=[N+]([O-])c1ccc2[nH]cc(-c3c4ccccc4cc4[nH]c5ccc([N+](=O)[O-])cc5c34)c2c1` as the compound, how does the GI50 read?
A: Its GI50 is 2500 nM.

Q: And the TGI?
A: The TGI was 7710 nM.

Q: Which results are given for `C=C1C(=O)O[C@@H]2/C=C(/C)C3=CC(=O)[C@@](C)(C[C@H](OC(=O)/C(C)=C\C)[C@@H]12)O3`?
A: GI50: 1140 nM; TGI: 5030 nM
